# Measured values: US20100166737A1, “P38Alpha as a Therapeutic Target in Bladder Carcinoma” (INSTITUT CURIE, priority 2007, published 2010)
# How the values were obtained:
# [1] = tested on: FGFR3-S249C-expressing NIH-3T3 cells (clone S249C1.2); assay: Morphology analysis of FGFR3-S249C-expressing NIH-3T3 cells; type: cell-based; settings: 30 μM, 48 h; FIG. 1C
# Experimental: (§1) NIH-3T3 cells were cultured 48 h in presence of different inhibitors, SB203580 and SU5402 (Calbiochem, Merck Eurolab, Fontenay Sous Bois, France), and pictures were taken using a phase-contrast microscope.
# NIH-3T3 control cells = assay: Morphology analysis of NIH-3T3 control cells; type: cell-based; settings: data not shown
# Experimental: as §1
# [2] = tested on: FGFR3-S249C-expressing cells (S249C1.2); assay: Soft agar assay of FGFR3-S249C-expressing NIH-3T3 cells; type: cell-based; settings: 21 days, colonies greater than 50 μm; FIG. 1D
# Experimental: (§2) For NIH-3T3, 30,000 transfected cells were added, in triplicate, to each well of a 12-well plate containing DMEM supplemented with 10% NCS and solidified with agar. For MGH-U3, 20,000 non-transfected or siRNA-transfected cells were added, to triplicate wells of 12-well plates containing MEM supplemented with 10% FCS and agar. When necessary, both cell types were cultured in the presence or absence of different inhibitors in agar and in culture medium. The same amount of inhibitor was added to the culture medium weekly.
# (§3) The plates were incubated for 21 or 14 days for NIH-3T3 and MGH-U3 cells respectively, and colonies with diameters greater than 50 μm were then scored as positive, using a phase-contrast microscope equipped with a measuring grid.
# MGH-U3 cells = assay: Soft agar assay, anchorage-independent growth of MGH-U3 cells; type: cell-based, human; settings: 14 days; FIG. 2C
# Experimental: as §2, §3
# MGH-U3 xenograft = MGH-U3 xenograft growth in athymic nude mice; type: in vivo; settings: intratumoral, daily, 100 μl of 20 μM, up to 25 days; FIG. 2D
# Experimental: Ten six-week-old female Swiss nu/nu mice were raised in the animal facilities of the Curie Institute in specified pathogen-free conditions. Their care and housing were in accordance with the institutional guidelines of the French National Ethics Committee (Ministere de l'Agriculture et de la Forêt, Direction de la Santë et de la Protection Animate, Paris, France) and were supervised by authorised investigators. Each mouse was injected subcutaneously in each flank (dorsal region) with 4×10^6 cells/site. When tumours reached 50 mm^3 (+/−10), mice were randomly separated into two group of 5 mice. 100 μl of 20 μM SB203580 or equal volume of PBS were administrated daily in tumours. Tumour formation was monitored for up to 25 days and the size of tumours was measured with Vernier calipers: two perpendicular diameters were used to estimate tumour volumes by the formule ab^2/2, where a is the largest and b the smallest diameter.
# [3] = tested on: transgenic mice tumor cell proliferation; assay: BrdU labelling, snout tumour cell proliferation in K5-FGFR3-S249C transgenic mice; type: in vivo; settings: 100 μM SB203580 on snout daily during 2 weeks; FIG. 3D
# Experimental: (§4) Transgenic mice (K5-FGFR3-S249C) expressing mutated receptor FGFR3b— S249C in basal cells of the epidermis were established previously (Logi& et al 2005, Hum. Mol. Genet. 14, 1153-1160). 40 μl of 100 μM SU5402 or of 100 μM SB203580 or of vehicule (acetone) were applied daily during 2 weeks on snout of 3 to 4 months old transgenic mice who had developed epidermal tumours on snout or of control littermates mice. Two hours prior sacrifice mice were injected (i.p), with 0.25 mg/g body weight Brdu (Sigma, Saint-Quentin Falavier, France). Brdu immunohistochemistry was performed on parafine embed snout tissue with BrdU in situ detection kit (BD Pharmingen, San Diego, Calif., USA) according to the manufacturer's instructions. The number of BrdU-labeled cells among 500 cells from basal epidermis layer was determined for each mouse. Total snout cells lysate (75 μg) were analyzed as described above using antibodies against p38 and phospho-p38 (Pp38).
# [4] = tested on: control mice basal epidermal cells; assay: BrdU labelling, basal epidermal cell proliferation in control littermate mice; type: in vivo; settings: 100 μM SB203580 on snout daily during 2 weeks, FIG. 3D
# Experimental: as §4
# [5] = tested on: NIH-3T3 cell line transfected by mutated FGFR3-S249C; settings: AACR abstract April 2005; cited from earlier work
# [6] = tested on: NIH-3T3 cell line transfected by mutated FGFR3-S249C; settings: AACR abstract April 2005; cited from earlier work; remark: listed apart in the source
# [7] = tested on: p38 phosphorylation in FGFR3-S249C expressing NIH-3T3 clones; assay: Immunoblot of p38 phosphorylation in FGFR3-S249C expressing NIH-3T3 clones; type: cell-based; settings: 30 μM SU5402, 24 hours; clones S249C1.1 and S249C1.2; FIG. 1B
# Experimental: (§5) Transfected NIH-3T3 cells were washed once with PBS and serum-starved for 24 h. Where required, cells were stimulated for 5 min with 20 ng/ml FGF1 in the presence of 50 μg/ml heparin at 37° C. They were then lysed in lysis buffer (50 mM Tris-HCl (pH 7.4), 150 mM NaCl, 1% NP-40, 0.25% sodium deoxycholate, 1 mM EDTA, 1 mM Na3VO4, 5 mM NaF, 1 μ/ml aprotinin, 1 μg/ml leupeptin and 1 μg/ml pepstatin) and the lysates were clarified by centrifugation. The protein concentrations of the supernatants were determined with the Biorad Bradford Protein Assay Kit (BioRad, Ivry sur Seine, France). Proteins from total cell lysates (75 μg protein) were resolved by SDS-PAGE on 10% polyacrylamide gels, electrotransferred to Immobilon-P membrane in 25 mM Tris, pH 8.3, 200 mM glycine, 10% ethanol and analyzed using antibodies against p38 (#9212), Aid (#9272), p42/p44 (#9102) and the phosphorylated forms of these proteins (phospho AKT (Thr308) #9275; phospho p42/p44 (thr202/tyr204) # 9101; phospho p38 (thr180/tyr182) (cell signaling Technology, Ozyme, Montigny le Bretonneux, France)
# [8] = tested on: p38 phosphorylation in MGH-U3 cells; assay: Immunoblot of p38 phosphorylation in MGH-U3 cells; type: cell-based, human; settings: 30 μM SU5402, 24 hours; FIG. 2A
# Experimental: as §5
# MGH-U3 total cell lysates (75 μg) were analyzed similarly using antibodies against p38, phospho-p38 and Akt.
# [9] = tested on: p38 phosphorylation in transgenic mice snout; assay: Immunoblot of p38 phosphorylation in snout of K5-FGFR3-S249C transgenic mice; type: in vivo; settings: 100 μM SU5402 on snout daily during 2 weeks; FIG. 3C
# Experimental: as §4
Structure (SMILES),transformed phenotype (morphology) [1],effect on the control cell phenotype (NIH-3T3 control cells),ability to form colonies in a soft agar assay [2],colonies on soft agar relative to control cells (MGH-U3 cells),MGH-U3 xenograft growth (MGH-U3 xenograft),tumor cell proliferation (BrdU labelling) [3],basal epidermal cells proliferation (BrdU labelling) [4],transformed phenotype of the cells [5],abilities to form colonies in soft agar [6],p38 phosphorylation [7],p38 phosphorylation [8],p38 phosphorylation [9]
C[S+]([O-])c1ccc(-c2nc(-c3ccncc3)c(-c3ccc(F)cc3)[nH]2)cc1 (stereo not drawn) [SB203580],reverted,no effect,inhibited,one third,significantly reduced,significant decreased,no effect,inhibits,inhibits,,,
Cc1c[nH]c(/C=C2\C(=O)Nc3ccccc32)c1CCC(=O)O [SU5402],reverted,no effect,inhibited,,,,,,,inhibited,suppressed,decreased
